According to US10472605B2, “Serum-free medium” (National University of Ireland, Galway, priority 2014, dated 2019):

Experiments:
[1] = system: MSC; test: Growth/proliferation of MSC isolated in 10% FBS and re-attached under serum-free conditions; type: cell-based; conditions: fibronectin-coated; for MSC proliferation in serum free medium containing FGF2 (5 ng/ml): 5 days; for MSC proliferation in serum free medium: over 3 passages, days 5, 10 and 15
Method: Tissue culture flasks were pre-coated with FN (black), HA (blue), VN (red) or LN (green) and cells were allowed to adhere in serum-free conditions. Cell numbers were obtained after 5 days. Controls include serum-free plating without the presence of an ECM attachment factor and 10% FBS (grey). Results are representative of 3 biological replicates with n=2;
Cells were then cultured in the presence of growth factors and passaged every 5 days. Controls include serum free plating without growth factors and 10% FBS. Results are representative of 3 biological replicates with n=2;
Cells were then cultured in serum-free media containing FGF2 (5 ng/ml) in the presence of PGE2, cholesterol or lipoprotein for 5 days. Controls include serum free plating without growth factors 10% FBS (A). Cells were then cultured in the presence of lipoprotein and passaged every 5 days for 3 passages, controls include serum free plating without lipoprotein (B). Results are representative of 3 biological replicates with n=2;
(§1) Proliferation of the MSC attached in the presence of basic fibroblast growth factor (bFGF2, FGF2) was also assessed after 6 days.
Serum-free basal medium formulation was selected based on the literature describing low-serum cell culture of dental pulp stem cells (Tarle et al., 2010). The basal medium was composed of ITS (1%, BD), ascorbic acid (10 mM, Sigma Aldrich), dexamethasone (10 nM, Sigma Aldrich), human serum albumin (50 mg/ml, Sigma Aldrich), penicillin/streptomycin solution (1%, Gibco) and MEM-α (Gibco). The effect of a range of growth factors on MSC proliferation was then examined. MSC were attached on fibronectin-coated tissue culture plastic for 48 hours in serum-free basal medium.
The effect of FGF2/FGF4 and FGF7 (1, 5 and 10 ng/ml), PDGFaa/PDGFab and PDGFbb (1, 5 and 10 ng/ml) on MSC proliferation over 3 passages on days 5, 10 and 15 was examined.
To further enhance MSC viability and proliferation lipoprotein was added to the serum-free basal medium. MSC isolated in the presence of serum were seeded on fibronectin-coated tissue culture plastic in serum free medium containing FGF2. Initially a range of factors were screened to support MSC viability after trypsinisation; the effect of prostoglandin E2 (PGE2; 50 μg/ml), cholesterol (30 μg/ml) and lipoprotein (4 μg/ml) on MSC proliferation in serum free medium containing FGF2 (5 ng/ml) was examined.

[2] = system: MSCs; test: Growth kinetics of MSC cultures, lipoprotein and fibronectin study; type: cell-based, human; conditions: no fibronectin vs pre-coating vs fibronectin in the medium
Method: MSCs were isolated from bone marrow based on plastic adherence in SF medium by plating 40×10^6 human bone marrow mononuclear cells/T-175 and culturing at 37° C., 5% CO2, 21% O2. Cells were subcultured once they had reached 80-90% confluence. MSCs were evaluated by assessing growth kinetics, tri-lineage differentiation and surface marker phenotype at the end of passage 3 (P3). For the lipoprotein study, SF medium was modified to contain one of the various lipoproteins at 80 ng/mL and these cells are seeded onto T175 flasks, which had been pre-coated with fibronectin. […]
VLDL and LDL are involved in trafficking fats to cells in arteries which may indicate why these groups had cells which formed more disperse healthier looking CFU-fs. […] Applying these CFU-f numbers with cell yields at the end of each passage, growth curves were calculated. […]
The final aim of this work was to determine if fibronectin is required for isolation and establishment of MSC cultures in the proprietary serum-free medium. […] This was assessed by looking at CFU-f numbers and growth kinetics of cells isolated from bone marrow directly onto tissue culture plastic without fibronectin, onto tissue culture plastic pre-coated with fibronectin and finally with fibronectin incorporated into the medium itself.

[3] = system: MSC; test: Serum-free MSC isolation from bone marrow (CFU and cell number at end of primary culture); type: cell-based
Method: The number of colony forming units (CFU; FIG. 6A) and cell number (FIG. 6B) was determined at the end of primary culture. An additional marrow was seeded on tissue culture plastic pre-coated with varying concentrations of fibronectin to determine optimal concentration of fibronectin required. The number of CFU (FIG. 6C) and cell yield (FIG. 6D) was determined at the end of primary culture. Controls include MSC isolation in the presence of 10% FBS or on non-coated tissue culture plastic;
The number of colony forming units (FIG. 7A) and cell number (FIG. 7B) was determined at the end of primary culture. Controls include MSC isolation in the presence of 10% FBS or on non-coated tissue culture plastic;
Initially MSC were isolated from three bone marrows to determine a suitable attachment substrate. […] A further bone marrow donor was then screened to determine the optimal fibronectin concentration; 6 μg/ml was selected as the favourable concentration (FIGS. 6C and 6D).
To examine the role of EGF in MSC isolation and attachment, 5 bone marrows were tested. MSC were isolated in the presence of FGF2 (5 ng/ml) on fibronectin coated plastic in the presence of EGF, or on tissue culture plastic in the presence of EGF.

[4] = system: bone marrow mononuclear cells (MNCs); test: CFU-f assay, SF medium with various lipoproteins or fibronectin; type: cell-based, human; conditions: no fibronectin vs pre-coating vs fibronectin added to the medium; standard SF medium with LDL
Method: For the lipoprotein study, Serum Free (SF) media was prepared containing: no lipoprotein (No lipo), very low density lipoprotein (VLDL), low density lipoprotein (LDL) and high density lipoprotein (HDL). Other lipoproteins that exist are chylomicrons and intermediate density lipoprotein which were not assessed in this study as they were not commercially available at the time. MSCs were isolated from bone marrow based on plastic adherence in SF medium by plating 40×10^6 human bone marrow mononuclear cells/T-175 and culturing at 37° C., 5% CO2, 21% O2. Cells were subcultured once they had reached 80-90% confluence. MSCs were evaluated by assessing growth kinetics, tri-lineage differentiation and surface marker phenotype at the end of passage 3 (P3). For the lipoprotein study, SF medium was modified to contain one of the various lipoproteins at 80 ng/mL and these cells are seeded onto T175 flasks, which had been pre-coated with fibronectin. For the fibronectin study described, standard SF medium containing LDL (Standard Formulation) was used and cells were seeded onto T175 flasks without fibronectin, with fibronectin pre-coating or with fibronectin added to the medium itself. CFU-f assays were carried out by seeding bone marrow mononuclear cells (MNCs) at a density of 1×10^6 MNC/10 cm^2 in triplicate in 6-well plates. […]

[5] = system: MSC; test: Attachment of MSC isolated in 10% FBS and re-attached under serum-free conditions; type: cell-based; conditions: EGF 10 ng/ml, serum free with FGF2, 3 passages
Source text: Tissue culture flasks were pre-coated with fibronectin (FN; black), hylauronic acid (HA; blue), vitronectin (VN; red) or laminin (LN; green) and cells were allowed to adhere in serum-free conditions. Controls include serum-free plating without the presence of an extra-cellular matrix (ECM) attachment factor and 10% FBS (grey). Results are representative of 3 biological replicates with n=2;
MSC were attached on tissue culture flasks in the presence of EGF (red) or on tissue culture plastic precoated with FN (purple) or in the presence of EGF on fibronectin coated plastic (green) and passaged every 3 days. Controls include serum free plating without the presence of an ECM attachment factor (blue) and 10% FBS (black). Results are representative of 3 biological replicates with n=2;
as §1

[6] = three bone marrows, attachment substrate vs vitronectin and hyaluronic acid

## CC(C)CCC[C@@H](C)[C@H]1CC[C@H]2[C@@H]3CC=C4C[C@@H](O)CC[C@]4(C)[C@H]3CC[C@]12C [cholesterol, reference compound]
[1]; 30 μg/ml
  MSC proliferation in serum free medium containing FGF2 (5 ng/ml): inhibitory effect

## CCCCC[C@H](O)/C=C/[C@H]1[C@H](O)CC(=O)[C@@H]1C/C=C\CCCC(=O)O [PGE2, prostoglandin E2, reference compound]
[1]; 50 μg/ml
  MSC proliferation in serum free medium containing FGF2 (5 ng/ml): inhibitory effect

## PDGFab: growth factor PDGFab
[1]; 10 ng/ml
  MSC proliferation in serum free medium: increased MSC proliferation

## fibronectin
[2]
  growth kinetics of the MSC cultures with or without fibronectin: unaffected
[3]; 5 bone marrows, FGF2 5 ng/ml, with EGF, coated vs uncoated plastic
  requirement for MSC attachment: required
[3]; [6]
  cell number at the end of the first passage: greatest cell number
  colony forming units: more colony forming units
[4]
  ability of CFU-fs to form / CFU-f numbers with or without fibronectin: No difference

## FGF2: basic fibroblast growth factor
[1]; 5 ng/ml
  MSC proliferation in serum free medium: increased MSC proliferation

## EGF: epidermal growth factor
[5]
  MSC attachment over passaging: increased MSC attachment
